Measured values reported in patent US20140297199A1, “DRUG SCREENING METHOD AND USES THEREOF” (COLD SPRING HARBOR LABORATORY, priority 2011, published 2014).
“Also recorded” adds a separate entry of the source.

Experiments:
[1] = tested on: c-fos-GFP expression in the mouse brain; experiment: c-fos-GFP pharmacomaps of three antipsychotics at a moderate dosage (Example 9); settings: 5 mouse brains per drug
[2] = tested on: c-fos-GFP expression in the whole mouse brain; experiment: c-fos-GFP pharmacomap by STP tomography, haloperidol vs saline (Example 5); format: in vivo; settings: 3 hours
Source text: This example analyzes the effects of antipsychotic drugs on neural circuit activity in the whole mouse brain. The method comprises the following steps: (1) an automated whole-brain microscopy, STP tomography, was used to image brains of c-fos-GFP mice, which express GFP as a marker for native c-fos; (2) the distribution of the activated c-fos-GFP-positive neurons was computationally detected by convolutional neural networks; (3) the processed datasets were warped and registered in a 3D reference brain and voxelized for statistical comparisons.
Transgenic c-fos-GFP mice (Reijmers et al., Science 317:1230-1233 (2007)), expressing GFP as a surrogate marker for native c-fos, was injected with intraperitoneally with haloperidol (1 mg/kg) or saline (control). The mice were returned to their home cage and left undisturbed for 3 hours, a time period needed for the induction and fluorophore maturation of c-fos-GFP. Next, the mice were deeply anesthetized and euthanized by intra-cardiac perfusion with saline and paraformaldehyde for brain fixation. The mice were decapitated and the brain was extracted, postfixed and embedded in agar for STP tomography. Three PMTs (C1-C3) can be used for multi-color imaging. […]

[3] = tested on: c-fos-GFP expression in the mouse brain; experiment: Haloperidol dose-response c-fos-GFP pharmacomaps (Example 10); format: in vivo
Source text: For example, before injection, male mice (8 weeks old) are single-housed for five days in order to limit the variability of the baseline c-fos-GFP expression.
For example, the datasets are represented as the number of centroids (c-fos-GFP cells) lying within an evenly spaced grid of 450×650×300 elements (voxels), each of size 20×20×50 microns.
Drugs have different effects and side effects at different dosages.

[4] = tested on: c-fos-GFP expression in the transgenic c-fos-GFP mouse brain; experiment: c-fos-GFP induction in transgenic c-fos-GFP mouse brain, whole-mount two-photon microscopy (Example 3); format: in vivo; settings: three hours, vs saline, one animal per treatment
Source text: High-throughput whole-brain imaging of an immediate early gene (IEG) induction was used in transgenic “indicator” mice that express GFP from specific IEG promoters, such as c-fos and Arc promoters in c-fos-GFP and Arc-GFP transgenic mice ((Barth et al., J Neurosci 24, 6466-6475 (2004); Grinevich et al., Journal of Neuroscience Methods 184, 25-36 (2009)). In these mice, GFP represents a readily detectable surrogate for the expression of the native gene.
Whole-mount two-photon microscopy was used for automated mouse brain imaging. The instrument works as follows: First, a fixed mouse brain embedded in an agar block is placed in a water bath on top of a computer controlled x-y-z stage. The stage moves the brain under the objective, so that the top is imaged as a mosaic of individual fields of view (“tiles”). […]
To validate the entire pipeline of data processing, the trained neural networks were applied to extract c-fos-GFP signal in brains of two mice, one injected with saline and the other with haloperidol at 1 mg/kg (FIG. 27). Three hours later, the mice were euthanized, their brains imaged by whole-mount two-photon microscopy, and c-fos-GFP-positive cells were computationally detected and visualized as a three-dimensional representation of intensity centroids (FIG. 17).

[5] = haloperidol 0.25, risperidone 1.0, aripiprazole 1.0 mg/kg, vs saline-injected control

## O=C(CCCN1CCC(O)(c2ccc(Cl)cc2)CC1)c1ccc(F)cc1 [haloperidol]
[1]; haloperidol 0.25 mg/kg, risperidone 1.0 mg/kg, aripiprazole 1.0 mg/kg, vs saline
  brain regions activated (pharmacomap): activated a major portion of the caudate putamen (CP) and nucleus accumbens (ACB), as well as the olfactory tubercle (OT), prelimbic cortex (PL), lateral septum (LS) and dorsomedial hypothalamus (HYP)
[1]; [5]
  c-fos-GFP activation, Anterior cingulate cortex (ACAd): up
  c-fos-GFP activation, Anterior cingulate cortex (ACAv): 0
  c-fos-GFP activation, Basal, Central, Cortic. Amydgala (AMG): 0
  c-fos-GFP activation, Bed nucleus of Stria Terminalis (BST): 0
  c-fos-GFP activation, Caudate-putamen (CP, dorso-medial): up
  c-fos-GFP activation, Caudate-putamen (CP, ventro-medial): up
  c-fos-GFP activation, Caudoputamen (CP, dorsolateral): up
  c-fos-GFP activation, Caudoputamen (CP, ventrolateral): up
  c-fos-GFP activation, Central medial thalamic nucleus: 0
  c-fos-GFP activation, Claustrum (CLA): 0
  c-fos-GFP activation, Dorsomedial hypoth. (HYP): up
  c-fos-GFP activation, Gostatory Cx (GU): 0
  c-fos-GFP activation, Hippocampus: CA1, CA2, CA3 (HF): 0
  c-fos-GFP activation, Hippocampus: DG: 0
  c-fos-GFP activation, Hypothalamus, ventromedial nuclei: 0
  c-fos-GFP activation, Infralimbic cortex (IL): up
  c-fos-GFP activation, Insular area, agranular: 0
  c-fos-GFP activation, Lateral Septum (LS): up
  c-fos-GFP activation, Lateral Spetal Nucl, dorsal part: 0
  c-fos-GFP activation, Midline Thalamus (Nucl Reuniens, RE): 0
  c-fos-GFP activation, Midline Thalamus (PVT): 0
  c-fos-GFP activation, Motor area, primary (MOp): 0
  c-fos-GFP activation, Motor area, secondary (MOs): 0
  c-fos-GFP activation, Nucleus Accumbens (ACB), core: up
  c-fos-GFP activation, Nucleus Accumbens (ACB), shell: up
  c-fos-GFP activation, Nucleus Accumbens (ACB), whole: up
  c-fos-GFP activation, Olfactory tubercle (OT): up
  c-fos-GFP activation, Orbital cortex ventral (VO): 0
  c-fos-GFP activation, Orbital cx (ORB), lateral: 0
  c-fos-GFP activation, Orbital cx (ORB), medial: up
  c-fos-GFP activation, Piriform cx (PIR): 0
  c-fos-GFP activation, Prelimbic cx (PL): up
  c-fos-GFP activation, RSPd, v, d and agl: 0
  c-fos-GFP activation, Red nucleus (RN): 0
  c-fos-GFP activation, Somatosensory cx, primary: 0
  c-fos-GFP activation, Striatum, ventro-lateral: 0
  c-fos-GFP activation, Superior Colliculus (SC): 0
  c-fos-GFP activation, Temporal cortex: 0
  c-fos-GFP activation, Ventromedial Thalamus (caudally): 0
  c-fos-GFP activation, Zona Inserta: 0
[2]; 1 mg/kg i.p., n=7 vs saline n=7, negative binomial regressions, FDR 0.01
  previously identified brain regions detected as statistically different vs saline: Medial prefrontal Cx, Cingulate Cx, Piriform Cx, Major Islands of Calleja, Nc Accumbens (whole, shell, core), Lateral septum, Striatum (whole), Medial preoptic area, Paraventricular nucleus, Bed nucleus of stria terminalis, Medial thalamus
[2]; 1 mg/kg intraperitoneally, saline brain 176,771
  number of c-fos-GFP cells in the brain (c-fos-GFP pharmacomap): 545,838 c-fos-GFP cells
[3]; 0.05 mg/kg (low)
  brain regions activated (pharmacomap A): activated dorsomedial hypothalamus (HYP), ACB, and CP
[3]; 0.25 mg/kg (medium)
  brain regions activated (pharmacomap B): activated the same structures as shown in pharmacomap A, plus OT, LS and PL
[3]; 1.0 mg/kg (high)
  brain regions activated (pharmacomap C): more widespread activation, including, in addition, prelimbic (PL), infralimbic (IL), and lateral entorhinal (ENT) areas, BST, central amygdala (CEA) and PVT
[3]; 0.05, 0.25 and 1.0 mg/kg
  numbers of activated areas across dosages: increasing numbers of activated areas observed with increasing dosage
[3]; 0.05, 0.25 and 1.0 mg/kg, data not shown
  strength of c-Fos induction within commonly activated regions (caudate putamen and nucleus accumbens): significantly increased with increasing dosage
[4]; 1 mg/kg, preliminary quantitation
  c-fos-GFP-positive cells per coronal section, caudal sections: increased numbers of c-fos-GFP-positive cells in many caudal coronal sections; also recorded: broad distribution of haloperidol-evoked c-fos-GFP induction in the caudal sections
[4]; i.p. 1 mg/kg
  brain regions with c-fos-GFP induction: expected induction of c-fos-GFP in the striatum and lateral septum; also recorded: expected strong induction of c-fos-GFP in the caudate putamen; also recorded: Strong labeling is induced in striatum (A) and lateral septum (B)
